Reference: patent US10091997B2, “Composition for inhibition of insect host sensing” (Vanderbilt University, priority 2010, dated 2018)

Experiments:
[1] = system: Un-transfected HEK293 cells; experiment: whole-cell patch clamp, control HEK293 cells (un-transfected or GFP alone); type: cell-based, human
Description: (§1) Currents from OR-expressing HEK293 cells were amplified with an Axopatch 200b Amplifier (Axon Instruments) and digitized through a Digidata 1322A (Axon Instruments). Electrophysiological data was recorded and analyzed using pCLAMP 10 (Axon Instruments). Electrodes were fabricated from quartz tubing (Sutter Instruments) and pulled to 4-6 MΩ for whole cell recording. Electrodes were filled with internal solution (120 mM KCl, 30 mM D-glucose, 10 mM HEPES, 2 mM MgCl2, 1.1 mM EGTA, and 0.1 CaCl2 (pH 7.35, 280 mOsm). External (bath) solution contained 130 mM NaCl, 34 mM D-glucose, 10 mM HEPES, 1.5 mM CaCl2, 1.3 mM KH2PO4, and 0.5 MgSO4 (pH 7.35, 300 mOsm). Compounds were diluted in external solution and locally perfused to the recording cell using Perfusion Pencil (Automate Scientific) and controlled by a ValveLink 8.2 controller (Automate Scientific). Whole cell recordings were sampled at 10 kHz and filtered at 5 kHz. Outside-out patches were obtained using 10-15MΩ electrodes pulled from standard glass capillaries (World Precision Instruments) and fire-polished with an MF-830 micro forge (Narishige). Single channel recordings were sampled at 20 kHz. Recordings were reduced to 1 kHz and low-pass filtered at 500 Hz for display and analysis using QuB (SUNY at Buffalo).

AgORco+AgOR10 = experiment: whole-cell patch clamp, HEK293 cells expressing AgORco+AgOR10; type: cell-based, Anopheles gambiae; conditions: for whole-cell currents: AgORco+AgOR10 cells, clamped at −60 mV
Description: as §1
(§2) To test the hypothesis that VUAA1 directly agonized AgORco, whole-cell patch clamp responses were examined in AgORco+AgOR10 expressing cells as well HEK293 cells stably expressing AgORco alone. […] The VUAA1-dependent currents in AgORco+AgOR10 cells resembled those resulting from application of benzaldehyde, an orthosteric agonist of AgOR10 (FIG. 3C) (Wang, 2010; Carey, 2010). AgORco+AgOR10 cells were more sensitive to VUAA1 than AgORco cells, producing inward currents at −5.0 log M, a concentration at which AgORco had no response. […] To investigate the specificity of VUAA1 agonism, the inventors transiently transfected HEK cells with the AgORco orthologs of Drosophila melanogaster and Heliothis virescens, DmOR83b and HvOR2 respectively.

AgORco = target: T1, AgORco (Anopheles gambiae, UniProt Q7QCC7); experiment: whole-cell patch clamp, HEK293 cells stably expressing AgORco alone; type: cell-based; conditions: for whole-cell currents: AgORco alone cells, clamped at −60 mV
T1 construct: expressed in transfected cells
T1 sequence (Q7QCC7 1-478): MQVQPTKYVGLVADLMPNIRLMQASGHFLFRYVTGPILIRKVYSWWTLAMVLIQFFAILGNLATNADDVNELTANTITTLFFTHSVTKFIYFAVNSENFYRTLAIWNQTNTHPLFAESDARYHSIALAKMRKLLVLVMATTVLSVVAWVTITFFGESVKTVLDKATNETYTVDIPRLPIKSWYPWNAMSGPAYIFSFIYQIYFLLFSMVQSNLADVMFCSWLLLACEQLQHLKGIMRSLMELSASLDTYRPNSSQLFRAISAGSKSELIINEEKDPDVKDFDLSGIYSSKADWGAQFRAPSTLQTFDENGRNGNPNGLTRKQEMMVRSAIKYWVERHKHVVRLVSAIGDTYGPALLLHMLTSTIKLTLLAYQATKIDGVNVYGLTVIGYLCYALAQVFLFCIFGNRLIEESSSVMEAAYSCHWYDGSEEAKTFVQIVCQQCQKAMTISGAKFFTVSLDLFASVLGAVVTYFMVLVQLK
Description: as §1, §2

[2] = target: T2, rat transient receptor potential vanilloid 1 (rTRPV1) (Rattus norvegicus, UniProt O35433); experiment: whole-cell patch clamp, HEK cells stably expressing rTRPV1; type: cell-based
T2 construct: expressed in transfected cells
T2 sequence (O35433 whole entry): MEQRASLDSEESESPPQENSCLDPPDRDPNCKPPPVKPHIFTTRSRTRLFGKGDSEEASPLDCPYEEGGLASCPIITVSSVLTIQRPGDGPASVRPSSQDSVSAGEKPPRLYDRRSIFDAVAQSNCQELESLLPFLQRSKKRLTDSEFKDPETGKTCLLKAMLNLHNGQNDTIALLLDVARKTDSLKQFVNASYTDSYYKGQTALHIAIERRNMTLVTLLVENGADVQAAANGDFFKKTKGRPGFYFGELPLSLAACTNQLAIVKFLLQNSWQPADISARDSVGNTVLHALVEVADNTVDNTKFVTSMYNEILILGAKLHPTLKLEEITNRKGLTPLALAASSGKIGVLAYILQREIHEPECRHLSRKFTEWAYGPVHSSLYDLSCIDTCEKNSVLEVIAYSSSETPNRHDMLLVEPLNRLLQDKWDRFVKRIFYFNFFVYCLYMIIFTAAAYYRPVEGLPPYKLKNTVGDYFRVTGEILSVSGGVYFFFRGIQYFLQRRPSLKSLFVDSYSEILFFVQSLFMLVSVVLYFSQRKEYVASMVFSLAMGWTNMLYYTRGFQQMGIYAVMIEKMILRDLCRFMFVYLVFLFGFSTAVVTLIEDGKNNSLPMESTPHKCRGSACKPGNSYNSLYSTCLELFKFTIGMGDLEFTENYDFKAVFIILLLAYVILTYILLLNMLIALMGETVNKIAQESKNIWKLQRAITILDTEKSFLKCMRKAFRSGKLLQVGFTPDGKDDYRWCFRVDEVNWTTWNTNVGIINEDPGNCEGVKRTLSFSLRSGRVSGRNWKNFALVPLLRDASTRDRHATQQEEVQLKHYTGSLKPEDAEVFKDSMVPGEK
Description: To determine the broad-spectrum specificity of VUAA1, the inventors tested VUAA1 on another non-selective cation channel, transient receptor potential vanilloid receptor 1 (TRPV1) (Caterina, 1997; Bohlen, 2010).

Structure (SMILES): O=Cc1ccccc1 [benzaldehyde, reference compound]
- whole-cell currents in GFP alone cells ([1]; HEK cells transfected with GFP alone): no currents
- whole-cell currents in control cells ([1]; control / un-transfected HEK293 cells): did not respond
- whole-cell currents (AgORco+AgOR10): concentration-dependent responses
- whole-cell currents (AgORco): only AgORco+AgOR10 cells responded to BA

Structure (SMILES): Nc1ncnc2c1nc(Br)n2[C@@H]1O[C@@H]2COP(=O)(O)O[C@H]2[C@H]1O [8-Br cAMP]
- whole-cell currents (AgORco+AgOR10): unable to evoke whole-cell currents
- whole-cell currents (AgORco): unable to evoke whole-cell currents

Structure (SMILES): Nc1nc2c(nc(Br)n2[C@@H]2O[C@@H]3COP(=O)(O)O[C@H]3[C@H]2O)c(=O)[nH]1 [8-Br cGMP]
- whole-cell currents (AgORco+AgOR10): unable to evoke whole-cell currents
- whole-cell currents (AgORco): unable to evoke whole-cell currents

Structure (SMILES): N.N.N.N.N.N.N.N.N.N.N.N.N.N.[Cl-].[Cl-].[Cl-].[Cl-].[Cl-].[Cl-].[O-2].[O-2].[Ru+3].[Ru+3].[Ru+4] [RR, ruthenium red]
- reduction of VUAA1-elicited currents (AgORco+AgOR10; AgOrco+AgOR10 cells, agonist VUAA1): 68.3±2.8%
- reduction of benzaldehyde-elicited currents (AgORco+AgOR10; AgOrco+AgOR10 cells, agonist benzaldehyde): 87.8±1.8%
- reduction of VUAA1 responses (AgORco; AgORco cells, agonist VUAA1): 79.4±4.0%

Structure (SMILES): COc1cc(CNC(=O)CCCC/C=C/C(C)C)ccc1O [Capsaicin, reference compound]
- whole-cell currents [2]: elicited a robust response
